Data taken from paper PMC10872723 (Journal of medicinal chemistry, 2023).
Where two headings read alike, the source gives them in different places.

Columns and labels:
Mouse PK study = details: 75 mg/kg
VCB E3 ligase complex = VCB E3 ligase complex (Homo sapiens, UniProt P40337); test: Isothermal titration calorimetry; type: binding
MIA PaCa-2 cells = test: TMT MS-based global proteomic study in MIA PaCa-2 cells; type: cell-based, human; details: 1.5 μM, 2 h, 4040 quantified proteins, cutoff P value less than 0.01, Log2 fold change greater than 0.5
WDR5 [1] = molecular target: T1, WDR5 (Homo sapiens, UniProt P61964); details: MIA PaCa-2 cells
WDR5 [2] = molecular target: T1, WDR5; test: Western blotting of WDR5 degradation in PDAC cell lines; type: cell-based; details: 18 h; for WDR5 degradation (WB): MIA PaCa-2, BxPC-3, HPAF-II, Panc10.05 and PANC-1 cells, indicated concentrations
[3] = tested on: WDR5-11–VCB ternary complex; test: ITC binding cooperativity, VCB into WDR5-11 binary complex; design: species or system human; details: VCB binding to the WDR5-11 binary complex vs VCB into 11
[4] = tested on: PDAC cell lines including MIA PaCa-2, BxPC-3, HPAF-II, Panc10.05, and PANC-1; test: Antiproliferative activity in PDAC cell lines; type: cell-based, human
IKZF1 = IKZF1 (Homo sapiens, UniProt Q13422); test: Western blotting of IKZF1 protein levels in MV4; details: MV4;11 cells
LIMD1 = LIMD1 (Homo sapiens, UniProt Q9UGP4); test: Western blotting of LIMD1 protein levels in MV4; details: MV4;11 cells, 0.1 and 0.5 μM, 18 h (Figure 5A)
WDR5 [5] = molecular target: T1, WDR5; test: Western blotting of WDR5 protein levels in MV4; details: MV4;11 cells
WDR5 [6] = molecular target: T1, WDR5; test: Isothermal titration calorimetry; type: binding
[7] = tested on: PDAC cell lines including MIA PaCa-2, BxPC-3, HPAF-II, Panc10.05, and PANC-1; details: previously reported; cited from earlier work
[8] = 0.1 and 0.5 μM, 18 h (Figure 5A)
[9] = indicated concentrations, 18 h (Figure 5C)
[10] = indicated concentrations, 18 h (Figure 5B)

Chain of IKZF1 (Q13422 whole entry): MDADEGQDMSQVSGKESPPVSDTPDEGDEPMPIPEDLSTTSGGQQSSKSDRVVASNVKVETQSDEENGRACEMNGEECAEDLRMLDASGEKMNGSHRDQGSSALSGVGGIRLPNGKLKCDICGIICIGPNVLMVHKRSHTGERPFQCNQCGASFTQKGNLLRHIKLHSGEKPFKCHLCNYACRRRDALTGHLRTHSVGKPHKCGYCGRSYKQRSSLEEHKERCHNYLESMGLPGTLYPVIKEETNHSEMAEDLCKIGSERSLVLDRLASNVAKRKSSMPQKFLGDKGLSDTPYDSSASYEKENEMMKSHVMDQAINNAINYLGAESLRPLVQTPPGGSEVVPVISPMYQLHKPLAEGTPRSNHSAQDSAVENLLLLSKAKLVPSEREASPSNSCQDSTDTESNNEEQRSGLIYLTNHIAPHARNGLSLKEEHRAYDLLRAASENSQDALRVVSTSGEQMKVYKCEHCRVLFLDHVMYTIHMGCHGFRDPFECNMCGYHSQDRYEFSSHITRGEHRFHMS
Chain of LIMD1 (Q9UGP4 whole entry): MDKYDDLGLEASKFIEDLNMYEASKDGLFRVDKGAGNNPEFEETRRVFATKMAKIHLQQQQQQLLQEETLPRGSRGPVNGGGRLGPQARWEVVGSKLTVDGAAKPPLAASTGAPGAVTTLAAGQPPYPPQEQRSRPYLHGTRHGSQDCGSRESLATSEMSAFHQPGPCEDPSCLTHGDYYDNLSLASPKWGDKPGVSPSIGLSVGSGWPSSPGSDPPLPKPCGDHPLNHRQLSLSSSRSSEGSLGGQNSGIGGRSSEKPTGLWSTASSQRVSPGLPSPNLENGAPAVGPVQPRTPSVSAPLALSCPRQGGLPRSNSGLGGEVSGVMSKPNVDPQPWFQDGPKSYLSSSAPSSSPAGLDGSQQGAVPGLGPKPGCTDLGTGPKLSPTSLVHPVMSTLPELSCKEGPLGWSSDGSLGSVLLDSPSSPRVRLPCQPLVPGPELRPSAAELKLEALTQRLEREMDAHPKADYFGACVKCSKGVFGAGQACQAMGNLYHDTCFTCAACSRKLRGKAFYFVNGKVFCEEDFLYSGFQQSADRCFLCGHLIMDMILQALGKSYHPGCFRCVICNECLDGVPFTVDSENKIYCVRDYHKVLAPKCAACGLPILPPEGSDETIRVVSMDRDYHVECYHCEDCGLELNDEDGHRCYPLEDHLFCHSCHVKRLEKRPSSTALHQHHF
Chain of VCB E3 ligase complex (Q15369 whole entry): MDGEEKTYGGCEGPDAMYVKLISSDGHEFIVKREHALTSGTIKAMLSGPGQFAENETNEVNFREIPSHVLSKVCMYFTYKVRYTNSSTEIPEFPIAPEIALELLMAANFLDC
Chain of VCB E3 ligase complex (Q15370 1-104, further chain): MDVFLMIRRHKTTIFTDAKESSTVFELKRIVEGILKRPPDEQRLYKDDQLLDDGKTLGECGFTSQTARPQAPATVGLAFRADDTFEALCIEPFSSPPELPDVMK
Chain of VCB E3 ligase complex (P40337 54-213): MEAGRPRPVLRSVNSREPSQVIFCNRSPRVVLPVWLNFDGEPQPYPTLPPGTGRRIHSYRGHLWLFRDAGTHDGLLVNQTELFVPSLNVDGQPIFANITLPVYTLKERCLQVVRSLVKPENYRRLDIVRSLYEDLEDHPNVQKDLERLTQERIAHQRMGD

Cc1ncsc1-c1ccc(CNC(=O)[C@@H]2C[C@@H](O)CN2C(=O)[C@@H](NC(=O)CNC(=O)c2ccc(F)c(-c3ccc(N4C[C@@H](C)N(C)[C@@H](C)C4)c(NC(=O)c4c[nH]c(=O)cc4C(F)(F)F)c3)c2)C(C)(C)C)cc1 [Compound 11, N-(2′-Fluoro-5′-((2-(((S)-1-((2S,4R)-4-hydroxy-2-((4-(4-methylthiazol-5-yl)benzyl)carbamoyl)pyrrolidin-1-yl)-3,3-dimethyl-1-oxobutan-2-yl)amino)-2-oxoethyl)carbamoyl)-4-((3S,5R)-3,4,5-trimethylpiperazin-1-yl)-[1,1′-biphenyl]-3-yl)-6-oxo-4-(trifluoromethyl)-1,6-dihydropyridine-3-carboxamide]
Tmax (Mouse PK study; male, Swiss albino, mouse, plasma, ip): 30 min
Clinical signs during the PK study (Mouse PK study; mice, single IP injection): no clinical signs were observed
Plasma concentration maintained for the initial 4 h (Mouse PK study; mice, single IP injection): around 1 μM
Plasma concentration maintained over 12 h (Mouse PK study; mice, single IP injection): above 100 nM
Kd (VCB E3 ligase complex): 534 ± 48 nM
Proteome-wide degradation selectivity (MIA PaCa-2 cells): WDR5 is the only protein whose abundance was significantly decreased
Time at which maximal WDR5 degradation achieved (WDR5 [1]; 0.1 μM): 24 h
Time at which significant WDR5 reduction observed (WDR5 [1]; 0.1 μM): 2 h
WDR5 protein levels (WB verification for proteomics) (WDR5 [1]; 1.5 μM, 2 h (Figure S5)): significantly reduced WDR5 protein levels
WDR5 protein levels (WB) (WDR5 [1]; 0.1 and 0.5 μM, 18 h (Figure 3)): effectively decreased the WDR5 protein levels
WDR5 degradation (WB) (WDR5 [2]): induced WDR5 degradation in a concentration-dependent manner
Hook effect in WDR5 degradation (WDR5 [2]; PDAC cells, concentrations up to 50 μM): no “hook effect” observed
Binding cooperativity α = KD (binary)/KD (ternary) [3]: 2.30
GI50 ([4]; Homo sapiens, 144 h): 4000 to 32000 nM

CN1CCN(c2ccc(-c3cccc(CN4CCN(CCNC(=O)CCCCCCCNC(=O)COc5cccc6c5C(=O)N(C5CCC(=O)NC5=O)C6=O)CC4)c3)cc2NC(=O)c2c[nH]c(=O)cc2C(F)(F)F)CC1 (stereo not shown) [Compound 21, N-(3′-((4-(2-(8-(2-((2-(2,6-Dioxopiperidin-3-yl)-1,3-dioxoisoindolin-4-yl)oxy)acetamido)octanamido)ethyl)piperazin-1-yl)methyl)4-(4-methylpiperazin-1-yl)-[1,1′-biphenyl]-3-yl)-6-oxo-4-(trifluoromethyl)-1,6-dihydropyridine-3-carboxamide]
IKZF1 protein levels (WB) (IKZF1; [8]): completely ineffective in degrading neo-substrate IKZF1
WDR5 protein levels (WB) (WDR5 [1]; [9]): effectively reduced the cellular WDR5 protein levels
LIMD1 protein levels (WB) (LIMD1): completely ineffective in degrading neo-substrate IKZF1, and protein LIMD1
Effectiveness in downregulating WDR5 protein levels relative to other degraders (WDR5 [5]; [8]): slightly more effective than MS40 and 23
WDR5 protein levels (WB) (WDR5 [5]; [8]): effectively downregulated WRD5 protein levels

CN1CCN(c2ccc(-c3cccc(CN4CCN(CCNC(=O)CCCCCCCNC(=O)COc5cccc6c5C(=O)N(C5CCC(=O)N(C)C5=O)C6=O)CC4)c3)cc2NC(=O)c2c[nH]c(=O)cc2C(F)(F)F)CC1 (stereo not shown) [Compound 22, N-(3′-((4-(2-(8-(2-((2-(1-Methyl-2,6-dioxopiperidin-3-yl)-1,3-dioxoisoindolin-4-yl)oxy)acetamido)octanamido)ethyl)piperazin-1-yl)methyl)-4-(4-methylpiperazin-1-yl)-[1,1′-biphenyl]-3-yl)-6-oxo-4-(trifluoromethyl)-1,6-dihydropyridine-3-carboxamide]
IKZF1 protein levels (WB) (IKZF1; [8]): did not have an effect on the protein levels of WDR5, IKZF1, and LIMD1
LIMD1 protein levels (WB) (LIMD1): did not have an effect on the protein levels of WDR5, IKZF1, and LIMD1
WDR5 protein levels (WB) (WDR5 [5]; [8]): did not have an effect on the protein levels of WDR5, IKZF1, and LIMD1

CN1CCN(c2ccc(-c3cccc(CN4CCN(CCNC(=O)CCCCNC(=O)COc5cccc6c5C(=O)N(C5CCC(=O)NC5=O)C6=O)CC4)c3)cc2NC(=O)c2c[nH]c(=O)cc2C(F)(F)F)CC1 (stereo not shown) [Compound 23, N-(3′-((4-(2-(5-(2-((2-(2,6-Dioxopiperidin-3-yl)-1,3-dioxoisoindolin-4-yl)oxy)acetamido)pentanamido)ethyl)piperazin-1-yl)methyl)-4-(4-methylpiperazin-1-yl)-[1,1′-biphenyl]-3-yl)-6-oxo-4-(trifluoromethyl)-1,6-dihydropyridine-3-carboxamide]
IKZF1 protein levels (WB) (IKZF1; [8]): completely ineffective in degrading neo-substrate IKZF1
LIMD1 protein levels (WB) (LIMD1): completely ineffective in degrading neo-substrate IKZF1, and protein LIMD1
WDR5 protein levels (WB) (WDR5 [5]; [8]): to a less extent effectively downregulated WRD5 protein levels

CN1CCN(c2ccc(-c3cccc(CN4CCN(CCNC(=O)CCCCNC(=O)COc5cccc6c5C(=O)N(C5CCC(=O)N(C)C5=O)C6=O)CC4)c3)cc2NC(=O)c2c[nH]c(=O)cc2C(F)(F)F)CC1 (stereo not shown) [Compound 24, N-(3′-((4-(2-(5-(2-((2-(1-Methyl-2,6-dioxopiperidin-3-yl)-1,3-dioxoisoindolin-4-yl)oxy)acetamido)pentanamido)ethyl)piperazin-1-yl)methyl)-4-(4-methylpiperazin-1-yl)-[1,1′-biphenyl]-3-yl)-6-oxo-4-(trifluoromethyl)-1,6-dihydropyridine-3-carboxamide]
IKZF1 protein levels (WB) (IKZF1; [8]): did not have an effect on the protein levels of WDR5, IKZF1, and LIMD1
LIMD1 protein levels (WB) (LIMD1): did not have an effect on the protein levels of WDR5, IKZF1, and LIMD1
WDR5 protein levels (WB) (WDR5 [5]; [8]): did not have an effect on the protein levels of WDR5, IKZF1, and LIMD1

C[C@@H]1CN(c2ccc(-c3cc(C(=O)NCCCCCCCNC(=O)COc4cccc5c4C(=O)N(C4CCC(=O)NC4=O)C5=O)ccc3F)cc2NC(=O)c2c[nH]c(=O)cc2C(F)(F)F)C[C@H](C)N1C (stereo partly drawn) [Compound 25, N-(5′-((7-(2-((2-(2,6-Dioxopiperidin-3-yl)-1,3-dioxoisoindolin-4-yl)oxy)acetamido)heptyl)carbamoyl)-2′-fluoro-4-((3S,5R)-3,4,5-trimethylpiperazin-1-yl)-[1,1′-biphenyl]-3-yl)-6-oxo-4-(trifluoromethyl)-1,6-dihydropyridine-3-carboxamide]
IKZF1 protein levels (WB) (IKZF1; [10]): had no effect on IKZF1 protein levels
WDR5 protein levels (WB) (WDR5 [1]; [9]): effectively reduced the cellular WDR5 protein levels

C[C@@H]1CN(c2ccc(-c3cc(C(=O)NCCCCCCCNC(=O)COc4cccc5c4C(=O)N(C4CCC(=O)N(C)C4=O)C5=O)ccc3F)cc2NC(=O)c2c[nH]c(=O)cc2C(F)(F)F)C[C@H](C)N1C (stereo partly drawn) [Compound 26, N-(2′-Fluoro-5′-((7-(2-((2-(1-methyl-2,6-dioxopiperidin-3-yl)-1,3-dioxoisoindolin-4-yl)oxy)acetamido)heptyl)carbamoyl)-4-((3S,5R)-3,4,5-trimethylpiperazin-1-yl)-[1,1′-biphenyl]-3-yl)-6-oxo-4-(trifluoromethyl)-1,6-dihydropyridine-3-carboxamide]
IKZF1 protein levels (WB) (IKZF1; [10]): did not affect the protein levels of WDR5 and IKZF1
WDR5 protein levels (WB) (WDR5 [5]; indicated concentrations, 18 h (Figures 5B and S1)): did not affect the protein levels of WDR5 and IKZF1

Cc1ncsc1-c1ccc(CNC(=O)[C@H]2C[C@H](O)CN2C(=O)[C@@H](NC(=O)CNC(=O)c2ccc(F)c(-c3ccc(N4C[C@@H](C)N(C)[C@@H](C)C4)c(NC(=O)c4c[nH]c(=O)cc4C(F)(F)F)c3)c2)C(C)(C)C)cc1 [Compound 27, N-(2′-Fluoro-5′-((2-(((S)-1-((2R,4S)-4-hydroxy-2-((4-(4-methylthiazol-5-yl)benzyl)carbamoyl)pyrrolidin-1-yl)-3,3-dimethyl-1-oxobutan-2-yl)amino)-2-oxoethyl)carbamoyl)-4-((3S,5R)-3,4,5-trimethylpiperazin-1-yl)-[1,1′-biphenyl]-3-yl)-6-oxo-4-(trifluoromethyl)-1,6-dihydropyridine-3-carboxamide]
KD to VCB (ITC) (VCB E3 ligase complex; mean ± SD, three independent experiments): did not display any noticeable binding to VCB
WDR5 degradation (WB) (WDR5 [2]): unable to degrade WDR5 in all tested pancreatic cancer cells
Kd (WDR5 [6]): 106 ± 43 nM
Antiproliferative activity ([4]; PDAC cells, 6 day treatment): lack of antiproliferative activity

CN1CCN(c2ccc(-c3cccc(CN4CCOCC4)c3)cc2NC(=O)c2c[nH]c(=O)cc2C(F)(F)F)CC1 [OICR-9429]
Antiproliferative activity [7]: lack of antiproliferative activity
